Results: ChEMBL document CHEMBL3046319, “PCR-RFLP detection of the E198A mutation conferring resistance to benzimidazoles in field isolates of Monilinia laxa from Greece” (Crop Prot, 2012)
Converted amounts (≈) assume the structure as drawn. The source made the active and inactive calls. The calls are words filed in the database; no cut-off is given here.

How the values were obtained:
Monilinia laxa [1] = assay: Fungicidal activity against Monilinia laxa isolate MLB1 assessed as reduction in mycelial growth rate at 25 degC after 4 days; format: functional, organism-based; conditions: isolate MLB1, 96 h
Monilinia laxa [2] = assay: Fungicidal activity against Monilinia laxa isolate MLP2 assessed as reduction in mycelial growth rate at 1 to 10 ug/ml at 31 degC after 5 days; format: functional, organism-based
Monilinia laxa [3] = assay: Fungicidal activity against Monilinia laxa isolate MLK7 assessed as reduction in mycelial growth rate at 1 to 10 ug/ml at 31 degC after 5 days; format: functional, organism-based
Monilinia laxa [4] = assay: Fungicidal activity against Monilinia laxa isolate MLK2 assessed as reduction in mycelial growth rate at 1 to 10 ug/ml at 31 degC after 5 days; format: functional, organism-based
Monilinia laxa [5] = assay: Fungicidal activity against Monilinia laxa isolate MLG6 assessed as reduction in mycelial growth rate at 1 to 10 ug/ml at 31 degC after 5 days; format: functional, organism-based
Monilinia laxa [6] = assay: Fungicidal activity against Monilinia laxa isolate MLG4 assessed as reduction in mycelial growth rate at 1 to 10 ug/ml at 31 degC after 5 days; format: functional, organism-based
Monilinia laxa [7] = assay: Fungicidal activity against Monilinia laxa isolate MLG3 assessed as reduction in mycelial growth rate at 1 to 10 ug/ml at 31 degC after 5 days; format: functional, organism-based
Monilinia laxa [8] = assay: Fungicidal activity against Monilinia laxa isolate MLC4 assessed as reduction in mycelial growth rate at 1 to 10 ug/ml at 31 degC after 5 days; format: functional, organism-based
Monilinia laxa [9] = assay: Fungicidal activity against Monilinia laxa isolate MLX5 assessed as mean number of conidia produced in the colony at 25 degC after 12 days by haemocytometer; format: functional
Monilinia laxa [10] = assay: Fungicidal activity against Monilinia laxa isolate MLP2 assessed as mean number of conidia produced in the colony at 25 degC after 12 days by haemocytometer; format: functional
Monilinia laxa [11] = assay: Fungicidal activity against Monilinia laxa isolate MLBO2 assessed as mean number of conidia produced in the colony at 25 degC after 12 days by haemocytometer; format: functional
Monilinia laxa [12] = assay: Fungicidal activity against Monilinia laxa isolate MLG1 assessed as mean number of conidia produced in the colony at 25 degC after 12 days by haemocytometer; format: functional
Monilinia laxa [13] = assay: Fungicidal activity against Monilinia laxa isolate MLP4 assessed as mean mycelial colony diameter at 25 degC after 4 days; format: functional
Monilinia laxa [14] = assay: Fungicidal activity against Monilinia laxa isolate MLX5 assessed as mean mycelial colony diameter at 25 degC after 4 days; format: functional
Monilinia laxa [15] = assay: Fungicidal activity against Monilinia laxa isolate MLP2 assessed as mean mycelial colony diameter at 25 degC after 4 days; format: functional
Monilinia laxa [16] = assay: Fungicidal activity against Monilinia laxa isolate MLAl8 assessed as reduction in mycelial growth rate at 1 to 10 ug/ml at 31 degC after 5 days; format: functional, organism-based
Monilinia laxa [17] = assay: Fungicidal activity against Monilinia laxa isolate MLK2 assessed as reduction in mycelial growth rate at 1 to 10 ug/ml at 28 degC after 8 days; format: functional, organism-based
Monilinia laxa [18] = assay: Fungicidal activity against Monilinia laxa isolate MLK4 assessed as reduction in mycelial growth rate at 1 to 10 ug/ml at 28 degC after 8 days; format: functional, organism-based
Monilinia laxa [19] = assay: Fungicidal activity against Monilinia laxa isolate MLG1 assessed as reduction in mycelial growth rate at 25 degC after 4 days; format: functional, organism-based; conditions: isolate MLG1, 96 h
Monilinia laxa [20] = assay: Fungicidal activity against Monilinia laxa isolate MLC2 assessed as reduction in mycelial growth rate at 1 to 10 ug/ml at 28 degC after 8 days; format: functional, organism-based
Monilinia laxa [21] = assay: Fungicidal activity against Monilinia laxa isolate KX5 assessed as reduction in mycelial growth rate at 1 to 10 ug/ml at 31 degC after 5 days; format: functional, organism-based
Monilinia laxa [22] = assay: Fungicidal activity against Monilinia laxa isolate MLC5 assessed as reduction in mycelial growth rate at 25 degC after 4 days; format: functional, organism-based; conditions: isolate MLC5, 96 h
Monilinia laxa [23] = assay: Fungicidal activity against Monilinia laxa isolate MLC4 assessed as reduction in mycelial growth rate at 25 degC after 4 days; format: functional, organism-based; conditions: isolate MLC4, 96 h
Monilinia laxa [24] = assay: Fungicidal activity against Monilinia laxa isolate MLC2 assessed as reduction in mycelial growth rate at 25 degC after 4 days; format: functional, organism-based; conditions: isolate MLC2, 96 h
Monilinia laxa [25] = assay: Fungicidal activity against Monilinia laxa isolate MLBO7 assessed as reduction in mycelial growth rate at 25 degC after 4 days; format: functional, organism-based; conditions: isolate MLBO7, 96 h
Monilinia laxa [26] = assay: Fungicidal activity against Monilinia laxa isolate MLBO5 assessed as reduction in mycelial growth rate at 25 degC after 4 days; format: functional, organism-based; conditions: isolate MLBO5, 96 h
Monilinia laxa [27] = assay: Fungicidal activity against Monilinia laxa isolate MLNS1 assessed as reduction in mycelial growth rate at 1 to 10 ug/ml at 25 to 28 degC; format: functional, organism-based
Monilinia laxa [28] = assay: Fungicidal activity against Monilinia laxa isolate MLK4 assessed as reduction in mycelial growth rate at 1 to 10 ug/ml at 25 to 28 degC; format: functional, organism-based
Monilinia laxa [29] = assay: Fungicidal activity against Monilinia laxa isolate MLC3 assessed as reduction in mycelial growth rate at 1 to 10 ug/ml at 25 to 28 degC; format: functional, organism-based
Monilinia laxa [30] = assay: Fungicidal activity against Monilinia laxa isolate MLC2 assessed as reduction in mycelial growth rate at 1 to 10 ug/ml at 25 to 28 degC; format: functional, organism-based
Monilinia laxa [31] = assay: Fungicidal activity against Monilinia laxa isolate MLB1 assessed as reduction in mycelial growth rate at 1 to 10 ug/ml at 25 to 28 degC; format: functional, organism-based
Monilinia laxa [32] = assay: Fungicidal activity against Monilinia laxa isolate MLBO2 assessed as mycelial growth at 1 ug/ml at 25 degC after 4 days; format: functional
Monilinia laxa [33] = assay: Fungicidal activity against Monilinia laxa isolate MLA1 assessed as mycelial growth at 1 ug/ml at 25 degC after 4 days; format: functional
Monilinia laxa [34] = assay: Fungicidal activity against Monilinia laxa isolate KX2 assessed as reduction in mycelial growth rate at 1 to 10 ug/ml at 31 degC after 5 days; format: functional, organism-based
Monilinia laxa [35] = assay: Fungicidal activity against Monilinia laxa isolate KX1 assessed as reduction in mycelial growth rate at 1 to 10 ug/ml at 31 degC after 5 days; format: functional, organism-based
Monilinia laxa [36] = assay: Fungicidal activity against Monilinia laxa isolate MLG7 assessed as reduction in mycelial growth rate at 25 degC after 4 days; format: functional, organism-based; conditions: isolate MLG7, 96 h
Monilinia laxa [37] = assay: Fungicidal activity against Monilinia laxa isolate MLBO5 assessed as mycelial growth at 1 ug/ml at 25 degC after 4 days; format: functional
Monilinia laxa [38] = assay: Fungicidal activity against Monilinia laxa isolate MLG1 in prune fruits assessed as virulence treated 10 min prior to mycelial inoculation at 24 degC after 10 days relative to isolate MLX1by pathogenicity bioassay; format: functional
Monilinia laxa [39] = assay: Fungicidal activity against Monilinia laxa isolate MLX2 assessed as reduction in mycelial growth rate at 1 to 10 ug/ml at 31 degC after 5 days; format: functional, organism-based
Monilinia laxa [40] = assay: Fungicidal activity against Monilinia laxa isolate KX1 assessed as reduction in mycelial growth rate at 25 degC after 4 days; format: functional, organism-based; conditions: isolate KX1, 96 h
Monilinia laxa [41] = assay: Fungicidal activity against Monilinia laxa isolate MLK5 assessed as reduction in mycelial growth rate at 25 degC after 4 days; format: functional, organism-based; conditions: isolate MLK5, 96 h
Monilinia laxa [42] = assay: Fungicidal activity against Monilinia laxa isolate MLK4A assessed as reduction in mycelial growth rate at 25 degC after 4 days; format: functional, organism-based; conditions: 96 h
Monilinia laxa [43] = assay: Fungicidal activity against Monilinia laxa isolate MLKS2 assessed as reduction in mycelial growth rate at 25 degC after 4 days; format: functional, organism-based; conditions: isolate MLKS2, 96 h

Structure (SMILES): COC(=O)Nc1nc2ccccc2[nH]1 [CARBENDAZIM]
- EC50 (Monilinia laxa [1]): > 50 µg/mL
- inhibition (Monilinia laxa [2]): Active
- inhibition (Monilinia laxa [3]): Active
- inhibition (Monilinia laxa [4]): Active
- inhibition (Monilinia laxa [5]): Active
- inhibition (Monilinia laxa [6]): Active
- inhibition (Monilinia laxa [7]): Active
- inhibition (Monilinia laxa [8]): Active
- Activity (Monilinia laxa [9]): 4.4 /cm2
- Activity (Monilinia laxa [10]): 4.15 /cm2
- Activity (Monilinia laxa [11]): 3.54 /cm2
- Activity (Monilinia laxa [12]): 5.85 /cm2
- Activity (Monilinia laxa [13]): 32.5 mm
- Activity (Monilinia laxa [14]): 28.3 mm
- Activity (Monilinia laxa [15]): 25.5 mm
- inhibition (Monilinia laxa [16]): Active
- inhibition (Monilinia laxa [17]): inactive
- inhibition (Monilinia laxa [18]): inactive
- EC50 (Monilinia laxa [19]): 0.1 µg/mL (≈ 0.523 µM)
- inhibition (Monilinia laxa [20]): inactive
- inhibition (Monilinia laxa [21]): Active
- EC50 (Monilinia laxa [22]): 0.11 µg/mL (≈ 0.575 µM)
- EC50 (Monilinia laxa [23]): 0.09 µg/mL (≈ 0.471 µM)
- EC50 (Monilinia laxa [24]): > 50 µg/mL
- EC50 (Monilinia laxa [25]): 0.1 µg/mL (≈ 0.523 µM)
- EC50 (Monilinia laxa [26]): 0.07 µg/mL (≈ 0.366 µM)
- inhibition (Monilinia laxa [27]): inactive
- inhibition (Monilinia laxa [28]): inactive
- inhibition (Monilinia laxa [29]): inactive
- inhibition (Monilinia laxa [30]): inactive
- inhibition (Monilinia laxa [31]): inactive
- Activity (Monilinia laxa [32]): 0%
- Activity (Monilinia laxa [33]): 0%
- inhibition (Monilinia laxa [34]): Active
- inhibition (Monilinia laxa [35]): Active
- EC50 (Monilinia laxa [36]): 0.12 µg/mL (≈ 0.628 µM)
- Activity (Monilinia laxa [37]): 0%
- Activity (Monilinia laxa [38]): 100%
- inhibition (Monilinia laxa [39]): Active
- EC50 (Monilinia laxa [40]): 0.06 µg/mL (≈ 0.314 µM)
- EC50 (Monilinia laxa [41]): > 50 µg/mL
- EC50 (Monilinia laxa [42]): 0.12 µg/mL (≈ 0.628 µM)
- EC50 (Monilinia laxa [43]): 0.01 µg/mL (≈ 0.0523 µM)
